US4251516A, “2-Deoxy-3-O-Demethylfortimicins” (Abbott Laboratories, priority 1979, dated 1981)
Where a name gives a salt, the structure may show the parent alone. Read-outs that look alike come from different tables or passages of the source.

What was measured:
Experiment in all cases: two-fold agar dilution MIC, Mueller-Hinton agar
Type in all cases: cell-based
[1] = system: Escherichia coli Juhl; conditions: read-out: Minimum Inhibitory Concentration
Protocol: (§1) The in vitro antibiotic activities are determined by a two-fold agar dilution method using Mueller-Hinton agar, 10 ml per Petri dish. The agar is inoculated with one loopful (0.001 ml loop) of a 1:10 dilution of a 24 hour broth culture of the indicated test organism and incubated at 37° C. for 24 hours. Appropriate fortimicins are used as control antibiotics. The activities, listed in the following Table I, minimum inhibitory concentrations(MIC) are expressed in mcg/ml.

[2] = system: Pseudomonas aeruginosa BMH #10; conditions: read-out: Minimum Inhibitory Concentration
Protocol: as §1

[3] = system: Escherichia coli BL 3676(Res); conditions: read-out: Minimum Inhibitory Concentration
Protocol: as §1

[4] = system: Pseudomonas aeruginosa KY 8516; conditions: read-out: Minimum Inhibitory Concentration
Protocol: as §1

[5] = system: Serratia marcescens 4003; conditions: read-out: Minimum Inhibitory Concentration
Protocol: as §1

[6] = system: Providencia 1577; conditions: read-out: Minimum Inhibitory Concentration
Protocol: as §1

[7] = system: Proteus vulgaris JJ; conditions: read-out: Minimum Inhibitory Concentration
Protocol: as §1

[8] = system: Shigella sonnei 9290; conditions: 37° C., 24 hours, read-out: Minimum Inhibitory Concentration
Protocol: as §1

[9] = system: Pseudomonas aeruginosa KY 8512; conditions: read-out: Minimum Inhibitory Concentration
Protocol: as §1

[10] = system: Klebsiella pneumoniae 10031; conditions: read-out: Minimum Inhibitory Concentration
Protocol: as §1

[11] = system: Enterobacter aerogenes 13048; conditions: read-out: Minimum Inhibitory Concentration
Protocol: as §1

[12] = system: Salmonella typhimurium Ed #9; conditions: Salmonella enterica, read-out: Minimum Inhibitory Concentration
Protocol: as §1

[13] = system: Proteus mirabilis Fin. #9; conditions: read-out: Minimum Inhibitory Concentration
Protocol: as §1

[14] = system: Pseudomonas aeruginosa 209; conditions: read-out: Minimum Inhibitory Concentration
Protocol: as §1

[15] = system: Staphyloccocus aureus Smith; conditions: Staphylococcus aureus, read-out: Minimum Inhibitory Concentration
Protocol: as §1

[16] = system: Streptoccocus faecalis 10541; conditions: read-out: Minimum Inhibitory Concentration
Protocol: as §1

[17] = system: Pseudomonas aeruginosa 27853; conditions: read-out: Minimum Inhibitory Concentration
Protocol: as §1

[18] = Escherichia coli Juhl, agar dilution, 37° C., 24 hours
[19] = Pseudomonas aeruginosa BMH #10, agar dilution, 37° C., 24 hours
[20] = KY8516, Pseudomonas aeruginosa KY 8516, agar dilution, 37° C., 24 hours
[21] = Serratia marcescens 4003, agar dilution, 37° C., 24 hours
[22] = Providencia 1577, agar dilution, 37° C., 24 hours
[23] = Proteus vulgaris JJ, agar dilution, 37° C., 24 hours
[24] = KY8512, Pseudomonas aeruginosa KY 8512, agar dilution, 37° C., 24 hours
[25] = Klebsiella pneumoniae 10031, agar dilution, 37° C., 24 hours
[26] = Klebsiella aerogenes, Enterobacter aerogenes 13048, agar dilution, 37° C., 24 hours
[27] = Salmonella typhimurium Ed #9, agar dilution, 37° C., 24 hours
[28] = Proteus mirabilis Fin. #9, agar dilution, 37° C., 24 hours
[29] = Pseudomonas aeruginosa 209, agar dilution, 37° C., 24 hours
[30] = Staphyloccocus aureus Smith, agar dilution, 37° C., 24 hours
[31] = Streptoccocus faecalis 10541, agar dilution, 37° C., 24 hours
[32] = Escherichia coli BL 3676(Res), agar dilution, 37° C., 24 hours
[33] = Pseudomonas aeruginosa, KY8512, 24 h
[34] = Pseudomonas aeruginosa, 27853, 24 h

CC(N)C1CCC(N)C(OC2C(N)CC(O)C(N(C)C(=O)CN)C2O)O1 (stereo not shown) [2-Deoxy-3-O-demethylfortimicin A . 4HCl, 2-Deoxy-3-O-Demethylfortimicin A tetrahydrochloride]
MIC [1, 18]: 6.2 µg/mL | MIC [2, 19]: 0.78 µg/mL | MIC ([3]; Escherichia coli, 24 h): 12.5 µg/mL | MIC [4, 20]: 100 µg/mL | MIC [5, 21]: 3.1 µg/mL | MIC [6, 22]: 1.56 µg/mL | MIC [7, 23]: 3.1 µg/mL | MIC [8]: 12.5 µg/mL | MIC [9, 24]: 3.1 µg/mL | MIC [10, 25]: 3.1 µg/mL | MIC [11, 26]: 3.1 µg/mL | MIC [12, 27]: 1.56 µg/mL | MIC [13, 28]: 3.1 µg/mL | MIC [14, 29]: 100 µg/mL | MIC [15, 30]: 0.39 µg/mL | MIC [16, 31]: 50 µg/mL | MIC ([17]; Pseudomonas aeruginosa 27853, agar dilution, 37° C., 24 hours): 6.2 µg/mL

COC1CC(N)C(OC2OC(C(C)N)CCC2N)C(O)C1N(C)C(=O)CN (stereo not shown) [2-Deoxyfortimicin A . 4 HCl, 2-Deoxyfortimicin A tetrahydrochloride]
MIC [1, 18]: 6.2 µg/mL | MIC [2, 19]: 0.78 µg/mL | MIC [3, 32]: 25 µg/mL | MIC [4, 20]: 50 µg/mL | MIC [5, 21]: 3.1 µg/mL | MIC [6, 22]: 3.1 µg/mL | MIC [7, 23]: 3.1 µg/mL | MIC [8]: 12.5 µg/mL | MIC [9, 33]: 12.5 µg/mL | MIC [10, 25]: 1.56 µg/mL | MIC [11, 26]: 3.1 µg/mL | MIC [12, 27]: 1.56 µg/mL | MIC [13, 28]: 6.2 µg/mL | MIC [14, 29]: 100 µg/mL | MIC [15, 30]: 0.78 µg/mL | MIC [16, 31]: 50 µg/mL | MIC [17, 34]: 12.5 µg/mL

CC(N)C1CCC(N)C(OC2C(N)C(O)C(O)C(N(C)C(=O)CN)C2O)O1 (stereo not shown) [3-O-Demethylfortimicin A . 4HCl, 3-O-demethylfortimicin A tetrahydrochloride]
MIC [1, 18]: 2.1 µg/mL | MIC [2, 19]: 0.27 µg/mL | MIC [3, 32]: 8.6 µg/mL | MIC [4, 20]: 69 µg/mL | MIC [5, 21]: 4.3 µg/mL | MIC [6, 22]: 1.1 µg/mL | MIC [7, 23]: 2.1 µg/mL | MIC [8]: 4.3 µg/mL | MIC [9, 24]: 2.1 µg/mL | MIC [10, 25]: 1.1 µg/mL | MIC [11, 26]: 2.1 µg/mL | MIC [12, 27]: 1.1 µg/mL | MIC [13, 28]: 2.1 µg/mL | MIC [14, 29]: 69 µg/mL | MIC [15, 30]: 0.54 µg/mL | MIC [16, 31]: 17 µg/mL

COC1C(O)C(N)C(OC2OC(C(C)N)CCC2N)C(O)C1N(C)C(=O)CN (stereo not shown) [Fortimicin A . 4HCl, fortimicin A tetrahydrochloride]
MIC ([1]; Escherichia coli, 24 h): 6.2 µg/mL | MIC ([2]; Pseudomonas aeruginosa, 24 h): 0.78 µg/mL | MIC ([3]; Escherichia coli, 24 h): 25 µg/mL | MIC ([4]; Pseudomonas aeruginosa, KY8516, 24 h): 100 µg/mL | MIC ([5]; Serratia marcescens, 4003, 24 h): 3.1 µg/mL | MIC ([6]; Providencia, 1577, 24 h): 6.2 µg/mL | MIC ([7]; Proteus vulgaris, 24 h): 3.1 µg/mL | MIC [8]: 12.5 µg/mL | MIC [9, 33]: 12.5 µg/mL | MIC ([10]; Klebsiella pneumoniae, 10031, 24 h): 3.1 µg/mL | MIC ([11]; Klebsiella aerogenes, 13048, 24 h): 3.1 µg/mL | MIC ([12]; TYPHIMURIUM, 24 h): 1.56 µg/mL | MIC ([13]; Proteus mirabilis, 24 h): 6.2 µg/mL | MIC ([14]; Pseudomonas aeruginosa, 209, 24 h): 100 µg/mL | MIC ([15]; 24 h): 0.78 µg/mL | MIC ([16]; 24 h): 50 µg/mL | MIC [17, 34]: 12.5 µg/mL
